Test results from patent US20150376196A1, “4-SUBSTITUTED PYRROLO- AND PYRAZOLO-DIAZEPINES” (BAYER PHARMA AKTIENGESELLSCHAFT, priority 2013, published 2015).
Read-outs that look alike come from different tables or passages of the source.

Experiments:
LAPC-4 cells = test: Cell proliferation assay (alamarBlue), LAPC-4; type: cell-based; settings: Homo sapiens, LAPC4, Prostate, 1 nM methyltrienolone, 168 hours, inhibition of cell proliferation
Description: (§1) In accordance with the invention, the ability of the substances to inhibit cell proliferation was determined Cell viability was determined by means of the alamarBlue® reagent (Invitrogen) in a Victor X3 Multilabel Reader (Perkin Elmer). The excitation wavelength was 530 nm and the emission wavelength […].
The LAPC-4 cells (ATCC, PTA-1441TM) were sown at a concentration of 4000 cells/well in 100 μl of growth medium (RPMI1640, 2 mM L-glutamine, 10% cFCS) on 96-well microtitre plates. One day later, the LAPC-4 cells were treated with 1 nM methyltrienolone and various substance dilutions.
(§2) The MDA-MB-231 cells (DSMZ, ACC 732) were sown at a concentration of 4000 cells/well in 100 μl of growth medium (DMEM/Ham's F12 medium, 10% FCS) on 96-well microtitre plates. After overnight incubation at 37° C., the fluorescence values (CI values) were determined. Then the plates were treated with various substance dilutions (1E-5 M, 3E-6 M, 1E-6 M, 3E-7 M, 1E-7 M, 3E-8 M, 1E-8 M) and incubated at 37° C. for 72 (MV-4-11, LOX-IMVI cells), 96 (MOLM-13, B16F10, […] cells), 120 (MOLP-8, KMS-12-PE cells) or 168 (LAPC-4 cells) hours. Subsequently, the fluorescence values were determined (CO values). For the data analysis, the CI values were subtracted from the CO values and the results were compared between cells which had been treated with various dilutions of the substance or only with buffer solution. The ICso values (substance concentration needed for 50% inhibition of cell proliferation) were calculated therefrom.
(§3) The substances were tested in the cell lines in Table 1, which represent the indications specified by way of example: […]

BRD4 (BD1) = target: T1, BRD4 (BD1) (Homo sapiens, UniProt O60885); test: Binding assay BRD4/acetylated peptide H4 (TR-FRET protein-protein interaction assay)
T1 construct: amino acids 67-152, longer constructs also being possible, preferably amino acids 44-168; made in house; host or cells: E. coli
Source text: To assess the BRD4 binding strength of the substances described in this application, the ability thereof to inhibit the interaction between BRD4 (BD1) and acetylated histone H4 in a dose-dependent manner was quantified.
For this purpose, a time-resolved fluorescence resonance energy transfer (TR-FRET) assay was used, which measures the binding between N-terminally His6-tagged BRD4 (BD1) (amino acids 67-152, longer constructs also being possible, preferably amino acids 44-168) and a synthetic acetylated histone H4 (Ac-H4) peptide with sequence GRGK(Ac)GGK(Ac)GLGK(Ac)GGAK(Ac)RHGSGSK-biotin. The recombinant BRD4 protein produced in-house according to Filippakopoulos et al., Nature, 2010, 468:1119-1123 was expressed in E. coli and purified by means of (Ni-NTA) affinity and (Sephadex G-75) size exclusion chromatography. The Ac-H4 peptide can be purchased, for example, from Biosyntan (Berlin, Germany).
In the assay, typically 11 different concentrations of each substance (0.1 nM, 0.33 nM, 1.1 nM, 3.8 nM, 13 nM, 44 nM, 0.15 μM, 0.51 μM, 1.7 μM, 5.9 μM and 20 μM) were analysed as duplicates on the same microtitre plate. For this purpose, 100-fold concentrated solutions in DMSO were prepared by serial dilutions (1:3.4) of a 2 mM stock solution into a clear, 384-well microtitre plate (Greiner Bio-One, Frickenhausen, Germany). From this, 50 nl were transferred into a black test plate (Greiner Bio-One, Frickenhausen, Germany). The test was started by the addition of 2 μl of a 2.5-fold concentrated BRD4 solution (final concentration typically 10 nM in the 5 μl of reaction volume) in aqueous assay buffer [50 mM HEPES pH 7.5, 50 mM sodium chloride (NaCl), 0.25 mM CHAPS and 0.05% serum albumin (BSA)] to the substances in the test plate. This was followed by a 10-minute incubation step at 22° C. for the pre-equilibration of putative complexes between BRD4 and the substances.
The mixture was then incubated in the dark at 22° C. for one hour and then at 4° C. for at least 3 hours and for no longer than overnight. The formation of BRD4/Ac-H4 complexes was determined by the measurement of the resonance energy transfer from the streptavidin-Eu cryptate to the anti-6His-XL665 antibody present in the reaction. For this purpose, the fluorescence emission was measured at 620 nm and 665 nm after excitation at 330-350 nm in a TR-FRET measuring instrument, for example a Rubystar or Pherastar (both from BMG Lab Technologies, Offenburg, Germany) or a Viewlux (Perkin-Elmer). The ratio of the emissions at 665 nm and at 622 nm was taken as an indicator of the amount of BRD4/Ac-H4 complexes formed.
The data (ratios) obtained were normalized, with 0% inhibition corresponding to the mean from the measurements for a set of controls (typically 32 data points) in which all the reagents were present. In these, in place of test substances, 50 nl of DMSO (100%) were used Inhibition of 100% corresponded to the mean from the measurements for a set of controls (typically 32 data points) in which all the reagents except BRD4 were present. The IC50 was determined by regression analysis based on a 4-parameter equation (minimum, maximum, IC50, Hill; Y=max+(min−max)/(1+(X/IC50)^Hill)).

MOLM-13 cells = test: Cell proliferation assay (alamarBlue), MOLM-13; type: cell-based; settings: Homo sapiens, Leukaemia, 96 hours, inhibition of cell proliferation
Description: as §1
The MOLM-13 cells (DSMZ, ACC 554) were sown at a concentration of 4000 cells/well in 100 μl of growth medium (RPMI1640, 10% FCS) on 96-well microtitre plates.
as §2, §3

[1] = BRD4 (BD1) / acetylated histone H4 peptide, TR-FRET, read-out: IC50 (BRD4)

Row | SMILES | IC50 (LAPC-4 cells) [nM] | IC50 (BRD4 (BD1); [1]) [nM] | IC50 (MOLM-13 cells) [nM] | IC50 (BRD4 (BD1)) [nM]
1 | Cc1c2c(cn1C)-n1c(C)nnc1[C@H](CC(=O)N1CCN3C(=O)CCC3C1)N=C2c1ccc(Cl)cc1 (single isomer, unassigned; (-)) [Example 23] | 470 | 50 | 880 | –
2 | Cc1c2c(cn1C)-n1c(C)nnc1[C@H](CC(=O)OC(C)(C)C)N=C2c1ccccc1 [Example 4, (−)-2-(4S)-(1,7,8-Trimethyl-6-phenyl-4,8-dihydropyrrolo[3,4f][1,2,4]triazolo[4,3-a][1,4]diazepin-4-yl)acetic acid tert-butyl ester] | – | – | – | 310
3 | CC(=O)N1CC(NC(=O)C[C@@H]2N=C(c3ccc(Cl)cc3)c3c(cn(C)c3C)-n3c(C)nnc32)C1 [Example 9, N-(1-Acetylazetidin-3-yl)-2-(4S)-[6-(4-chlorophenyl)-1,7,8-trimethyl-4,8-dihydropyrrolo[3,4-f][1,2,4]triazolo[4,3-a][1,4]diazepin-4-yl]acetamide] | 550 | 110 | 610 | –
4 | CCNC(=O)C[C@@H]1N=C(c2ccc(Cl)cc2)c2c(cn(C)c2C)-n2c(C)nnc21 [Example 10, (−)-2-[(4S)-6-(4-Chlorophenyl)-1,7,8-trimethyl-4,8-dihydropyrrolo[3,4f][1,2,4]triazolo[4,3-a][1,4]diazepin-4-yl]-N-ethylacetamide] | – | 170 | 450 | –
5 | Cc1nnc2n1-c1cn(C)nc1C(c1ccc(Cl)cc1)=N[C@H]2CC(=O)N1CCS(=O)(=O)CC1 [Example 15, 2-[(4S)-6-(4-Chlorophenyl)-1,8-dimethyl-4,8-dihydropyrazolo[3,4f][1,2,4]triazolo[4,3-a][1,4]diazepin-4-yl]-1-(1,1-dioxidothiomorpholin-4-yl)ethanone] | – | 450 | 2980 | –
6 | Cc1nnc2n1-c1cn(C)nc1C(c1ccc(Cl)cc1)=NC2CC(=O)N1CCOCC1 (stereo not drawn) [Example 16, 2-[6-(4-Chlorophenyl)-1,8-dimethyl-4,8-dihydropyrazolo[3,4-f][1,2,4]triazolo[4,3-a][1,4]diazepin-4-yl]-1-(morpholin-4-yl)ethanone] | – | 700 | 4550 | –
7 | Cc1nnc2n1-c1cn(C)nc1C(c1ccc(Cl)cc1)=NC2CC(=O)N1CC(F)C1 (stereo not drawn) [Example 17, 2-[6-(4-Chlorophenyl)-1,8-dimethyl-4,8-dihydropyrazolo[3,4-f][1,2,4]triazolo[4,3-a][1,4]diazepin-4-yl]-1-(3-fluoroazetidin-1-yl)ethanone] | – | 1140 | – | –
8 | CCNC(=O)CC1N=C(c2ccc(Cl)cc2)c2nn(C)cc2-n2c(C)nnc21 (stereo not drawn) [Example 18, 2-[6-(4-Chlorophenol)-1,8-dimethyl-4,8-dihydropyrazolo[3,4-f][1,2,4]triazolo[4,3-a][1,4]diazepin-4-yl]-N-ethylacetamide] | – | 780 | – | –
9 | Cc1c2c(cn1C)-n1c(C)nnc1[C@H](CC(=O)N1CCOCC1)N=C2c1ccccc1 [Example 19, 1-(Morpholin-4-yl)-2-[(4S)-1,7,8-trimethyl-6-phenyl-4,8-dihydropyrrolo[3,4f][1,2,4]triazolo[4,3-a][1,4]diazepin-4-yl]ethanone] | 700 | 240 | 1240 | –
10 | Cc1c2c(cn1C)-n1c(C)nnc1[C@H](CC(=O)N1CC(Oc3ccccc3)C1)N=C2c1ccc(Cl)cc1 [Example 20, (−)-2-[(4S)-6-(4-Chlorophenyl)-1,7,8-trimethyl-4,8-dihydropyrrolo[3,4f][1,2,4]triazolo[4,3-a][1,4]diazepin-4-yl]-1-(3-phenoxyazetidin-1-yl)ethanone] | 410 | 60 | 920 | –
11 | Cc1c2c(cn1C)-n1c(C)nnc1[C@H](CC(=O)N1CCOCC1)N=C2c1ccc(Cl)cc1 [Example 21] | 240 | 40 | 520 | –
12 | Cc1c2c(cn1C)-n1c(C)nnc1[C@H](CC(=O)N1CCN(C(=O)OC(C)(C)C)CC1)N=C2c1ccc(Cl)cc1 [Example 22, (−)-4-{[(4S)-6-(4-Chlorophenyl)-1,7,8-trimethyl-4,8-dihydropyrrolo[3,4-f][1,2,4]triazolo[4,3-a][1,4]diazepin-4-yl]acetyl}piperazine-1-carboxylic acid tert-butyl ester] | 340 | 20 | 720 | –
13 | Cc1c2c(cn1C)-n1c(C)nnc1C(Cc1nc(C3CC3)no1)N=C2c1ccc(Cl)cc1 (stereo not drawn) [Example 24, 6-(4-Chlorophenyl)-4-[(3-cyclopropyl-1,2,4-oxadiazol-5-yl)methyl]-1,7,8-trimethyl-4,8-dihydropyrrolo[3,4-f][1,2,4]triazolo[4,3-a][1,4]diazepine] | – | 50 | 80 | –
14 | Cc1noc(CC2N=C(c3ccc(Cl)cc3)c3c(cn(C)c3C)-n3c(C)nnc32)n1 (stereo not drawn) [Example 25, 6-(4-Chlorophenyl)-1,7,8-trimethyl-4-[(3-methyl-1,2,4-oxadiazol-5-yl)methyl]-4,8-dihydropyrrolo[3,4-f][1,2,4]triazolo[4,3-a][1,4]diazepine] | 80 | 90 | 130 | –
15 | CCc1noc(CC2N=C(c3ccc(Cl)cc3)c3c(cn(C)c3C)-n3c(C)nnc32)n1 (stereo not drawn) [Example 27, 6-(4-Chlorophenyl)-1,7,8-trimethyl-4-[(3-ethyl-1,2,4-oxadiazol-5-yl)methyl]-4,8-dihydropyrrolo[3,4-f][1,2,4]triazolo[4,3-a][1,4]diazepine] | – | 30 | 100 | –
16 | Cc1c2c(cn1C)-n1c(C)nnc1C(Cc1nc(C(C)C)no1)N=C2c1ccc(Cl)cc1 (stereo not drawn) [Example 29, 6-(4-Chlorophenyl)-1,7,8-trimethyl-4-{[3-(propan-2-yl)-1,2,4-oxadiazol-5-yl]methyl}-4,8-dihydropyrrolo[3,4-f][1,2,4]triazolo[4,3-a][1,4]diazepine] | – | 30 | 80 | –
17 | Cc1c2c(cn1C)-n1c(C)nnc1C(Cc1nc(C(C)(C)C)no1)N=C2c1ccc(Cl)cc1 (stereo not drawn) [Example 31, 4-[(3-tert-Butyl-1,2,4-oxadiazol-5-yl)methyl]-6-(4-chlorophenyl)-1,7,8-trimethyl-4,8-dihydropyrrolo[3,4-f][1,2,4]triazolo[4,3-a][1,4]diazepine] | 350 | 490 | 490 | –
